PubChem BioAssay AID1259408 (Genetic Toxicology Data Bank (GENE-TOX), 2018)
Calls of active or inactive are those of the source. How the calls were made is not given here.

Test system: GENE-TOX genotoxicity assays, various organisms and cells
Assay: GENE-TOX mutagenicity studies
Details: for call: Assay Type: In vivo carcinogenicity studies
[1] = Species/Cell Type: Drosophila melanogaster, Assay Type: Sex-linked recessive lethal gene mutation, Assay Code: SRL+, Evaluation Type: Evaluation A (Pre-1980)
[2] = Species/Cell Type: Bacillus subtilis (H17 vs M45T), Assay Type: Rec-assay, spot test, DNA effects (bacterial DNA repair), Assay Code: REXT, Evaluation Type: Evaluation A (Pre-1980)
[3] = Species/Cell Type: Nonhuman, Assay Code: CCG+, Evaluation Type: Evaluation A (Pre-1980)
[4] = Species/Cell Type: Chinese hamster lung (V79) cells, Assay Type: Forward gene mutation at the HPRT or ouabain locus, Assay Code: V79+, Evaluation Type: Evaluation A (Pre-1980)
[5] = Species/Cell Type: Salmonella typhimurium (one or more of the five standard strains: TA98, TA100, TA1535, TA1537, and TA1538), Assay Type: Histidine reverse gene mutation, Ames assay, Assay Code: SAL+, Evaluation Type: Evaluation A (Pre-1980)
[6] = Species/Cell Type: Nonhuman, Assay Type: Sister-chromatid exchange (SCE) in vitro, Assay Code: SC2T, Evaluation Type: Evaluation B (Post-1980)
[7] = Species/Cell Type: Drosophila melanogaster, Assay Type: Sex-linked recessive lethal gene mutation, Assay Code: SRLT, Evaluation Type: Evaluation A (Pre-1980)
[8] = Species/Cell Type: Escherichia coli polA (W3119 vs P3478), Assay Type: Rec-assay, DNA effects (bacterial DNA repair), Assay Code: RE1+, Evaluation Type: Evaluation A (Pre-1980)
[9] = Species/Cell Type: Salmonella typhimurium (one or more of the five standard strains: TA98, TA100, TA1535, TA1537, and TA1538), Assay Type: Histidine reverse gene mutation, Ames assay, Assay Code: SAL+*, Activation: With metabolic activation, Evaluation Type: Evaluation A (Pre-1980)
[10] = Species/Cell Type: Escherichia coli polA (W3119 vs P3478), Assay Type: Rec-assay, DNA effects (bacterial DNA repair), Assay Code: RE1T, Evaluation Type: Evaluation A (Pre-1980)
[11] = Species/Cell Type: Fischer rat embryo (RLV/1706) cells, Assay Type: Cell transformation, viral enhanced, Assay Code: CTR+, Evaluation Type: Evaluation A (Pre-1980)

Q: `CCOC(=O)N(OC(C)=O)C(C)=O` was tested. Which mutagenic call [1] did it give?
A: The mutagenic call was “active; positive”.

Q: What about the mutagenic call (Species/Cell Type: Drosophila melanogaster, Sex: Male, Assay Type: Heritable translocation test, chromosome aberrations, Assay Code: DHTT, Evaluation Type: Evaluation A (Pre-1980)) of the same molecule?
A: The mutagenic call was “no conclusion”.

Q: For `Cc1ccccc1N=Nc1c(O)ccc2ccccc12`, which mutagenic call [2] is on record?
A: The mutagenic call was “no conclusion”.

Q: And the call [3]?
A: Its call is “active; positive”.

Q: For `O=P(O)(O)O`, which mutagenic call (Species/Cell Type: Syrian hamster embryo (SA7/SHE) cells, Assay Type: Cell transformation, viral enhanced, Assay Code: CT7-, Evaluation Type: Evaluation A (Pre-1980)) is on record?
A: Its mutagenic call is “inactive; negative”.

Q: How did the mutagenic call [4] turn out when `c1cc2ccc3cc4c(c5ccc(c1)c2c35)[C@H]1O[C@H]1CC4` was run?
A: The mutagenic call was “active; positive”.

Q: What about the mutagenic call (Species/Cell Type: Mouse prostate cells, Assay Type: Cell transformation, Assay Code: CTM-, Evaluation Type: Evaluation A (Pre-1980)) of the same molecule?
A: Its mutagenic call is “inactive; negative”.

Q: And the call (Species/Cell Type: Nonhuman, Assay Code: CCGT, Evaluation Type: Evaluation A (Pre-1980))?
A: The call was “no conclusion”.

Q: And the mutagenic call [5]?
A: The mutagenic call was “active; positive”.

Q: Which results are given for `O=C(O)c1c(Cl)c(Cl)c(Cl)c(Cl)c1-c1c2cc(I)c(=O)c(I)c-2oc2c(I)c(O)c(I)cc12`?
A: mutagenic call (Species/Cell Type: Bacillus subtilis (H17 vs M45), Assay Type: Rec-assay, spot test, DNA effects (bacterial DNA repair), Assay Code: REWT, Evaluation Type: Evaluation A (Pre-1980)): no conclusion; mutagenic call [2]: no conclusion; mutagenic call (Species/Cell Type: Human, Assay Type: Sister-chromatid exchange (SCE) in vitro, Assay Code: SC1T, Evaluation Type: Evaluation B (Post-1980)): no conclusion; mutagenic call [6]: no conclusion; mutagenic call (Species/Cell Type: Saccharomyces cerevisiae, Assay Type: Mitotic recombination or gene conversion, Assay Code: YEC-, Evaluation Type: Evaluation A (Pre-1980)): inactive; negative

Q: Which mutagenic call [6] does the source give for `CCCSP(=S)(OCC)Oc1ccc(SC)cc1` (configuration not stated) here?
A: The mutagenic call was “no conclusion”.

Q: Which mutagenic call (Species/Cell Type: Bacillus subtilis (H17 vs M45), Assay Type: Rec-assay, spot test, DNA effects (bacterial DNA repair), Assay Code: REW-, Evaluation Type: Evaluation A (Pre-1980)) does the source give for `Cc1cc(N=Nc2ccc(C)c(N=Nc3cc(C)c(N)cc3N)c2)c(N)cc1N` here?
A: The mutagenic call was “inactive; negative”.

Q: Which mutagenic call (Species/Cell Type: Mammalian polychromatic erythrocytes, Assay Type: Micronucleus test, chromosome aberrations, Assay Code: MNT+, Evaluation Type: Evaluation B (Post-1980)) does the source give for `NNc1ccccc1` here?
A: Its mutagenic call is “active; positive”.

Q: What does the source list for `NN`?
A: mutagenic call [7]: no conclusion; call [3]: active; positive; mutagenic call (Species/Cell Type: Nonhuman, Assay Type: Sister-chromatid exchange (SCE) in vitro, Assay Code: SC2+D, Dose Response: With dose response, Evaluation Type: Evaluation B (Post-1980)): active; positive; mutagenic call (Species/Cell Type: Saccharomyces cerevisiae, Assay Type: Forward gene mutation, Assay Code: YEF+, Evaluation Type: Evaluation A (Pre-1980)): active; positive; mutagenic call (Species/Cell Type: Vicia faba, Assay Type: Chromosome aberrations, Assay Code: VIC+, Evaluation Type: Evaluation A (Pre-1980)): active; positive

Q: Which mutagenic call (Species/Cell Type: Drosophila melanogaster, Assay Type: Aneuploidy, partial sex chromosome loss, chromosome aberrations, Assay Code: DAPT, Evaluation Type: Evaluation A (Pre-1980)) does the source give for `O=NN1CCCCC1` here?
A: Its mutagenic call is “no conclusion”.

Q: And the mutagenic call (Species/Cell Type: Drosophila melanogaster, Assay Type: Aneuploidy, whole sex chromosome loss, chromosome aberrations, Assay Code: DACT, Evaluation Type: Evaluation A (Pre-1980))?
A: Its mutagenic call is “no conclusion”.

Q: What about the mutagenic call [1] of the same molecule?
A: The mutagenic call was “active; positive”.

Q: What about the mutagenic call [8] of the same molecule?
A: The mutagenic call was “active; positive”.

Q: What about the call [3] of the same molecule?
A: Its call is “active; positive”.

Q: And the mutagenic call (Species/Cell Type: Nonhuman, Assay Type: Sister-chromatid exchange (SCE) in vivo, Assay Code: SC3+, Evaluation Type: Evaluation B (Post-1980))?
A: The mutagenic call was “active; positive”.

Q: What about the mutagenic call (Species/Cell Type: Saccharomyces cerevisiae, Assay Type: Forward gene mutation, Assay Code: YEF+*, Activation: With metabolic activation, Evaluation Type: Evaluation A (Pre-1980)) of the same molecule?
A: Its mutagenic call is “active; positive”.

Q: And the mutagenic call (Species/Cell Type: Saccharomyces cerevisiae, Assay Type: Reverse gene mutation, Assay Code: YER+*, Activation: With metabolic activation, Evaluation Type: Evaluation A (Pre-1980))?
A: Its mutagenic call is “active; positive”.

Q: And the mutagenic call [9]?
A: Its mutagenic call is “active; positive”.

Q: And the mutagenic call (Species/Cell Type: Syrian hamster embryo (SHE) cells, Assay Type: Cell transformation, clonal assay, Assay Code: CTC+, Evaluation Type: Evaluation A (Pre-1980))?
A: Its mutagenic call is “active; positive”.

Q: Which mutagenic call (Species/Cell Type: Bacillus subtilis (H17 vs M45), Assay Type: Rec-assay, spot test, DNA effects (bacterial DNA repair), Assay Code: REW+, Evaluation Type: Evaluation A (Pre-1980)) does the source give for `[Cl][Ir-2]([Cl])([Cl])([Cl])([Cl])[Cl]` here?
A: The mutagenic call was “active; positive”.

Q: For `CC(C)Cl`, which mutagenic call (Species/Cell Type: Saccharomyces cerevisiae, Assay Type: Mitotic recombination or gene conversion, Assay Code: YEH-, Evaluation Type: Evaluation A (Pre-1980)) is on record?
A: Its mutagenic call is “inactive; negative”.

Q: And the mutagenic call [5]?
A: Its mutagenic call is “active; positive”.

Q: Which mutagenic call [6] does the source give for `C=C/C=C/C=C/C#CC#C/C=C/C` here?
A: The mutagenic call was “no conclusion”.

Q: `OCc1ccn2c1[C@H](O)CC2` was tested. Which mutagenic call (Species/Cell Type: Human lymphocytes, Assay Type: Sister-chromatid exchange (SCE) in vitro, Assay Code: SCL+D, Dose Response: With dose response, Evaluation Type: Evaluation B (Post-1980)) did it give?
A: The mutagenic call was “active; positive”.

Q: And the mutagenic call (Species/Cell Type: Human, Assay Type: Sister-chromatid exchange (SCE) in vitro, Assay Code: SC1+D, Dose Response: With dose response, Evaluation Type: Evaluation B (Post-1980))?
A: The mutagenic call was “active; positive”.

Q: For `O=C1c2ccccc2-c2ccccc21`, which mutagenic call [10] is on record?
A: The mutagenic call was “no conclusion”.

Q: What does the source list for `CS(=O)(=O)O`?
A: mutagenic call [7]: no conclusion; mutagenic call [10]: no conclusion

Q: `O=NN1CCCC(O)C1` (configuration not stated) was tested. Which mutagenic call [9] did it give?
A: The mutagenic call was “active; positive”.

Q: For `NC(=O)N(CCCl)N=O`, which mutagenic call [4] is on record?
A: Its mutagenic call is “active; positive”.

Q: Which mutagenic call (Species/Cell Type: Drosophila melanogaster, Assay Type: Sex-linked recessive lethal gene mutation, Assay Code: SRL-, Evaluation Type: Evaluation A (Pre-1980)) does the source give for `CCC(=O)C(CC(C)N(C)C)(c1ccccc1)c1ccccc1` (configuration not stated) here?
A: Its mutagenic call is “inactive; negative”.

Q: What about the mutagenic call (Species/Cell Type: Drosophila melanogaster, Sex: Male, Assay Type: Heritable translocation test, chromosome aberrations, Assay Code: DHT-, Evaluation Type: Evaluation A (Pre-1980)) of the same molecule?
A: Its mutagenic call is “inactive; negative”.

Q: And the mutagenic call (Species/Cell Type: Human, Sex: Male, Assay Type: Sperm morphology, Assay Code: SPHT, Evaluation Type: Evaluation A (Pre-1980))?
A: The mutagenic call was “no conclusion”.

Q: For `CCN(CC)CCNc1ccc(C(=O)O)c2sc3ccccc3c(=O)c12`, which mutagenic call [11] is on record?
A: The mutagenic call was “active; positive”.

Q: With `CC(=O)N(O)c1ccc2c(c1)Cc1ccccc1-2` as the molecule, how does the mutagenic call [4] read?
A: Its mutagenic call is “active; positive”.

Q: And the mutagenic call (Species/Cell Type: Chinese hamster ovary (CHO) cells, Assay Type: Forward gene mutation at the HPRT locus, Assay Code: CHO+, Evaluation Type: Evaluation B (Post-1980))?
A: The mutagenic call was “active; positive”.

Q: What about the mutagenic call [7] of the same molecule?
A: The mutagenic call was “no conclusion”.

Q: And the mutagenic call [8]?
A: The mutagenic call was “active; positive”.

Q: And the mutagenic call [11]?
A: Its mutagenic call is “active; positive”.

Q: And the mutagenic call (Species/Cell Type: Human diploid fibroblasts, Assay Type: Unscheduled DNA synthesis (UDS) in vitro, DNA effects, Assay Code: UDH+D, Dose Response: With dose response, Evaluation Type: Evaluation A (Pre-1980))?
A: The mutagenic call was “active; positive”.

Q: What about the mutagenic call (Species/Cell Type: Human lymphocytes, Assay Type: Sister-chromatid exchange (SCE) in vitro, Assay Code: SCLT, Evaluation Type: Evaluation A (Pre-1980)) of the same molecule?
A: Its mutagenic call is “no conclusion”.

Q: What about the mutagenic call (Species/Cell Type: Human, Assay Type: Sister-chromatid exchange (SCE) in vitro, Assay Code: SC1+, Evaluation Type: Evaluation B (Post-1980)) of the same molecule?
A: The mutagenic call was “active; positive”.

Q: And the mutagenic call (Species/Cell Type: Human, Assay Type: Sister-chromatid exchange (SCE) in vitro, Assay Code: SC1T, Evaluation Type: Evaluation A (Pre-1980))?
A: Its mutagenic call is “no conclusion”.

Q: What about the mutagenic call (Species/Cell Type: Mouse (BALB/c-3T3) cells, Assay Type: Cell transformation, Assay Code: CTB+D, Dose Response: With dose response, Evaluation Type: Evaluation A (Pre-1980)) of the same molecule?
A: Its mutagenic call is “active; positive”.

Q: What about the mutagenic call (Species/Cell Type: Mouse embryo (AKR/ME) cells, Assay Type: Cell transformation, Assay Code: CTK-, Evaluation Type: Evaluation A (Pre-1980)) of the same molecule?
A: Its mutagenic call is “inactive; negative”.

Q: What about the mutagenic call (Species/Cell Type: Neurospora crassa, Assay Type: Reverse gene mutation, Assay Code: NER+, Evaluation Type: Evaluation A (Pre-1980)) of the same molecule?
A: The mutagenic call was “active; positive”.

Q: And the call [3]?
A: Its call is “active; positive”.

Q: And the mutagenic call (Species/Cell Type: Nonhuman, Assay Type: Sister-chromatid exchange (SCE) in vitro, Assay Code: SC2+D, Dose Response: With dose response, Evaluation Type: Evaluation A (Pre-1980))?
A: Its mutagenic call is “active; positive”.

Q: And the mutagenic call (Species/Cell Type: Rat primary hepatocytes, Assay Type: Unscheduled DNA synthesis (UDS) in vitro, DNA effects, Assay Code: UDP+, Evaluation Type: Evaluation A (Pre-1980))?
A: Its mutagenic call is “active; positive”.

Q: And the mutagenic call (Species/Cell Type: Saccharomyces cerevisiae, Assay Type: Mitotic recombination or gene conversion, Assay Code: YEC+, Evaluation Type: Evaluation A (Pre-1980))?
A: The mutagenic call was “active; positive”.

Q: And the mutagenic call [5]?
A: Its mutagenic call is “active; positive”.

Q: What about the mutagenic call (Species/Cell Type: Syrian hamster embryo (SHE) cells, Assay Type: Cell transformation, clonal assay, Assay Code: CTC+D, Dose Response: With dose response, Evaluation Type: Evaluation A (Pre-1980)) of the same molecule?
A: Its mutagenic call is “active; positive”.

Q: `Cc1ccc2cc3c(cc(-c4ccccc4O)c4ccccc43)c3c2c1CC3` was tested. Which mutagenic call (Species/Cell Type: Chinese hamster lung (V79) cells, Assay Type: Forward gene mutation at the HPRT or ouabain locus, Assay Code: V79-, Evaluation Type: Evaluation A (Pre-1980)) did it give?
A: The mutagenic call was “inactive; negative”.

Q: How did the mutagenic call (Species/Cell Type: Allium cepa, Assay Type: Chromosome aberrations, Assay Code: ALC+, Evaluation Type: Evaluation A (Pre-1980)) turn out when `COc1nc(OC)nc(N2CC2)n1` was run?
A: Its mutagenic call is “active; positive”.
